A word on the IC50: it is the concentration that inhibits the measured activity by half. By EC50 is commonly meant the concentration needed to bring the measured effect to its halfway point.

One series deals with T1, FPR1-HL60 cells (Homo sapiens, UniProt P21462).
T1 construct: expressed in transfected cells
T1 sequence (P21462 1-350): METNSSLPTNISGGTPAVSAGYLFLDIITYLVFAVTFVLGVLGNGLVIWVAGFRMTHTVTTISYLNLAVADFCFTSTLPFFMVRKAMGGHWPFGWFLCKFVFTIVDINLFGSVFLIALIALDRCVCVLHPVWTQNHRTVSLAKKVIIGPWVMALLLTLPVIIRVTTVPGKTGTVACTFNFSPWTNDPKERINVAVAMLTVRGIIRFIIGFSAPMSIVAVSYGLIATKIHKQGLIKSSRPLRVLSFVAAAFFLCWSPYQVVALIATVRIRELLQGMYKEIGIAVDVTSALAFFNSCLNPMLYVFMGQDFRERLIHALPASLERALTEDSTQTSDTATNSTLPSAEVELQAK
The series can be described thus: Inhibition of fMLF-induced Ca2+ influx in FPR1-HL60 cells. Type of series: cell-based. The settings on record: pure compounds; 10 min preincubation; induced by 5 nM fMLF. The method, then: (§1) Human promyelocytic leukemia HL60 cells stably transfected with FPR1 (FPR1-HL60 cells) or FPR2 (FPR2-HL60 cells) were kindly provided by Dr. Marie-Josephe Rabiet, INSERM, Grenoble, France. These cells were cultured in RPMI 1640 medium containing 10% heat-inactivated fetal calf serum, 10 mM HEPES, 100 μg/mL streptomycin, 100 U/mL penicillin, and G418 (1 mg/mL). G418 was removed before assays were performed.
(§2) Changes in intracellular Ca^2+ concentrations ([Ca^2+]i) in human neutrophils were measured with a FlexStation 3 scanning fluorometer (Molecular Devices), as previously described. To assess the direct effects of test compounds or pure essential oils on Ca^2+ influx, the compounds/oils were added to the wells (final concentration of DMSO was 1%), and changes in fluorescence were monitored (λex = 485 nm, λem = 538 nm) every 5 s for 240 s at room temperature after addition of the test compound. To evaluate inhibitory effects of the compounds on FPR1/FPR2-dependent Ca^2+ influx, the compounds were added to the wells (final concentration of DMSO was 1%) with cells (human neutrophils or FPR1/FPR2 HL60 cells). The samples were preincubated for 10 min, followed by addition of 5 nM fMLF (for human neutrophils or FPR1-HL60 cells) or 5 nM WKYMVM (for FPR2-HL60 cells). The maximum change in fluorescence, expressed in arbitrary units over baseline, was used to determine the agonist response. Responses were normalized to the response induced by 5 nM fMLF or 5 nM WKYMVM, which were assigned as 100%.
(§3) For all Ca^2+ influx experiments, curve fitting (at least five or six points) and calculation of median effective concentration values (EC50 or IC50) were performed by nonlinear regression analysis of the dose–response curves generated using Prism 7 (GraphPad Software, Inc., San Diego, CA, USA).

Series [1] concerns human neutrophils. The series can be described thus: Inhibition of fMLF-induced Ca2+ influx in human neutrophils. The format is cell-based. The following applies: Homo sapiens, Neutrophil; pure compounds; 10 min preincubation; induced by 5 nM fMLF.
Source text: (§4) For isolation of human neutrophils, blood was collected from healthy donors in accordance with a protocol approved by the Institutional Review Board at Montana State University (Protocol #MQ041017), as described previously. Isolated neutrophils were washed and resuspended in HBSS^–. Neutrophil preparations were routinely >95% pure and >98% viable. Neutrophils were obtained from multiple different donors (n = 8); however, the cells from different donors were never pooled during experiments.
as §2, §3

A further series addresses T2, FPR2-HL60 cells (Homo sapiens, UniProt P25090).
T2 construct: expressed in transfected cells
T2 sequence (P25090 1-351): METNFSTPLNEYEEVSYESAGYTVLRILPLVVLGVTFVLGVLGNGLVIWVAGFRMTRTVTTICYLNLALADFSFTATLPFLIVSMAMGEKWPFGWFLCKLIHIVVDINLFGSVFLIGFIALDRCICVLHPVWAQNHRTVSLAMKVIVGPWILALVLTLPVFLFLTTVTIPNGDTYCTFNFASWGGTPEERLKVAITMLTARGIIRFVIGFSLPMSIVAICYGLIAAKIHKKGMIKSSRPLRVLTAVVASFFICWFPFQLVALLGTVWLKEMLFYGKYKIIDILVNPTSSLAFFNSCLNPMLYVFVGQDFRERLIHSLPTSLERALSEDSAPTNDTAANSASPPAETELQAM
Briefly: Inhibition of WKYMVM-induced Ca2+ influx in FPR2-HL60 cells. The following applies: pure compounds; 10 min preincubation; induced by 5 nM WKYMVM. The format is cell-based. The method, then: as §1, §2, §3

For series [2], the system named is human C20 microglial cells. The series can be described thus: Ca2+ influx (direct effect) in C20 microglial cells. The following applies: pure compounds, direct effect on [Ca2+]i, mean ± SD of three experiments; for EC50: Homo sapiens. The format is cell-based. On the procedure:
(§5) Human C20 microglial cells were kindly provided by Dr. David Alvarez-Carbonell (Department of Molecular Biology and Microbiology, Case Western Reserve University, Cleveland, OH, USA); these are immortalized primary human microglial cells that maintain characteristics of primary microglial cells. C20 cells were grown at 37 °C and 5% CO2 in DMEM:F12 medium supplemented with 10% FBS, 2.5 mM L-glutamine, 110 mg/L sodium pyruvate, 15 mM HEPES, 100 μg/mL normocin, 100 μg/mL streptomycin, and 100 U/mL penicillin.
(§6) For analysis of Ca^2+ influx in C20 microglial cells, the cells were plated in 96-well black, clear bottom plates at 10^4 cells/well in DMEM/F12 medium containing 10% FBS. The cells were treated with 200 nM PMA for 24 h, and the medium was changed every day for 5 days. On day 5, the cells were loaded with FLIPR Calcium 5 (Molecular Devices) at a volume ratio of 1:1 for 30 min at 37 °C in the dark. The plates were then placed in a FlexStation 3 fluorometer, and basal fluorescence was measured (λex = 485 nm, λem = 538 nm). Essential oils or individual compounds of interest were added manually (final concentration of DMSO was 1%), and fluorescence was monitored for 2 min to assess the direct effects of these treatments on [Ca^2+]i. After a 10 min incubation at 37 °C, the fluorescence baseline was recorded again, and 10 µM fMLF was added to evaluate inhibitory effects on agonist-induced [Ca^2+]i. Responses were normalized to the response induced by 10 µM fMLF.
as §3

The next series addresses T3, PIM1 (Homo sapiens, UniProt P11309).
T3 construct: purchased Eurofins Pharma Discovery, San Diego, CA, USA (KINOMEscan service)
The series can be described thus: KINOMEscan kinase Kd determination, PIM1. The format is binding. The following applies: maximum concentration of 33 µM. On the procedure:
(§7) KINOMEscan®® was used to determine the dissociation constant (Kd) of the indicated sesquiterpenes for selected kinases (Eurofins Pharma Discovery, San Diego, CA, USA). […] Assays were performed in duplicate, and the average mean value is shown.

The target of the next series is T4, JNK3 (Homo sapiens, UniProt P53779).
T4 construct: purchased Eurofins Pharma Discovery, San Diego, CA, USA (KINOMEscan service)
Briefly: KINOMEscan kinase Kd determination, JNK3. The format is binding. The following applies: maximum concentration of 33 µM. On the procedure:
as §7

Series [3] concerns human neutrophils. The series can be described thus: Neutrophil chemotaxis assay (fMLF-induced). The format is cell-based. The settings on record: Homo sapiens, Neutrophil; pure compounds; chemotaxis induced by 1 nM fMLF.
Source text: as §4
Human neutrophils were resuspended in HBSS^+ containing 2% (v/v) heat-inactivated fetal bovine serum (2 × 10^6 cells/mL), and chemotaxis was analyzed in 96-well ChemoTx chemotaxis chambers (Neuroprobe, Gaithersburg, MD), as described previously. Curve fitting (at least eight to nine points) and calculation of median effective concentration values (IC50) were performed by nonlinear regression analysis of the dose-response curves generated using GraphPad Prism 8.

In series [4] the test system is human C20 microglial cells. The series can be described thus: Inhibition of fMLF-induced Ca2+ influx in C20 microglial cells. The format is cell-based. The settings on record: 10 min, pure compounds, 10 min incubation, induced by 10 μM fMLF. The method, then:
as §5, §6, §3

Another series concerns HL60 cells. The series can be described thus: Cytotoxicity assay (CellTiter-Glo) in HL60 cells. Type of series: cell-based, human. The settings on record: oils up to 25 µg/mL, compounds up to 25 µM. The method, then:
Cytotoxicity of essential oils and pure compounds was analyzed in human promyelocytic HL60 cells using a CellTiter-Glo Luminescent Cell Viability Assay Kit (Promega), as described previously.
(Cellular ATP, detected with luciferase, serves as a proxy for viable cell number.)

Series [5] deals with human neutrophils. Briefly: Ca2+ influx (direct effect) in human neutrophils. The format is cell-based. The following applies: Homo sapiens, Neutrophil; pure compounds; direct effect on [Ca2+]i; mean ± SD of three experiments.
Source text: as §4, §2, §3

In another series the target is T5, MAPKAPK2 (Homo sapiens, UniProt P49137).
T5 construct: purchased Eurofins Pharma Discovery, San Diego, CA, USA (KINOMEscan service)
Briefly: KINOMEscan kinase Kd determination, MAPKAPK2. The format is binding. The following applies: maximum concentration of 33 µM. On the procedure:
as §7

The structures appear in SMILES notation. Where only a bound is given, the exact number is not on record here.

T3 sequence (P11309 whole entry): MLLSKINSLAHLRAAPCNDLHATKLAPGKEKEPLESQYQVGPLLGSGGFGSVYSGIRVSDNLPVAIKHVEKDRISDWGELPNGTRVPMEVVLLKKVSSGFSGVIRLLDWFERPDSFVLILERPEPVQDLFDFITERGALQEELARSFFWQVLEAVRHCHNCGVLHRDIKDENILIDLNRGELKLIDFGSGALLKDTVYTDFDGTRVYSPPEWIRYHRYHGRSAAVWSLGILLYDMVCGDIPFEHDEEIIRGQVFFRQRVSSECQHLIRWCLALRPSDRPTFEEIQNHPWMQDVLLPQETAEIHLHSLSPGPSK
T4 sequence (P53779 whole entry): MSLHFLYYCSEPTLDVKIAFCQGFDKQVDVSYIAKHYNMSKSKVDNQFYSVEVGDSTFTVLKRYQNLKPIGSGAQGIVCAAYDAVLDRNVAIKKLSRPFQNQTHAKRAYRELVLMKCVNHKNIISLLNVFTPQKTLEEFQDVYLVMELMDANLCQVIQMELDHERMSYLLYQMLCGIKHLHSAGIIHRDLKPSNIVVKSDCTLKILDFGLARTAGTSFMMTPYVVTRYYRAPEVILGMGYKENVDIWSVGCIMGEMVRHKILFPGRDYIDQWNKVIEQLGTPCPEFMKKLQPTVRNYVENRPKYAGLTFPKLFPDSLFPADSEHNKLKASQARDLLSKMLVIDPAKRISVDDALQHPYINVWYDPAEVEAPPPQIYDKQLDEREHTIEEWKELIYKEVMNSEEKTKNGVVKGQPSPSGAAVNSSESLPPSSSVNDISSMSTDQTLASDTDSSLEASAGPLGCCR
T5 sequence (P49137 whole entry): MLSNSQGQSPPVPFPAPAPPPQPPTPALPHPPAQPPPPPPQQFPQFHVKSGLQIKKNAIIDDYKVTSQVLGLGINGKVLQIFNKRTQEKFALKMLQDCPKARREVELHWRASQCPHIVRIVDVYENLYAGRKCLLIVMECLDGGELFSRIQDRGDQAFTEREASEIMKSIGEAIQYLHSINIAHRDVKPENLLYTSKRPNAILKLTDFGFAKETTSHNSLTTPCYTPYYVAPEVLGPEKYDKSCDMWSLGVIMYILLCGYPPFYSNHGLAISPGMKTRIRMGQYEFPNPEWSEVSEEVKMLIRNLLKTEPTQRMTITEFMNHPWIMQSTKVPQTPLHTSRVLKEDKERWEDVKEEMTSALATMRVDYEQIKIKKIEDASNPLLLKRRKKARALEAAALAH

As to `CC(C)=C1C/C=C(\C)CC/C=C(\C)CC1=O` [Germacrone], the IC50 at FPR1-HL60 cells came out at 27.7 ± 2.9 µM; in the series with human neutrophils [1], 27.9 ± 8.9 µM; against FPR2-HL60 cells it was 25 ± 7.2 µM; in the series with human neutrophils [3], 8.5 ± 0.6 µM; in series [4], 10.7 ± 2.3 µM. The figures for the EC50 (in series [2]; in the series with human neutrophils [5]) were 27.7 ± 2.5 µM and 24 ± 4.6 µM, respectively. Also, on PIM1, the “Binding affinity (Kd) toward PIM1” value is on record as “did not observe any binding activity”. Moreover, the “Binding affinity (Kd) toward JNK3” value at JNK3 is given as “did not observe any binding activity”. Besides, the “Cell viability (cytotoxicity), 30 min incubation” value in the series on HL60 cells was “minimal effects on cell viability”. The “Binding affinity (Kd) toward MAPKAPK2” value at MAPKAPK2 is given as “did not observe any binding activity”.

For the molecule `C=C1CC[C@@H]2[C@H]([C@H]3[C@H]1CC[C@]3(C)O)C2(C)C` [Spathulenol, spathulenol], the IC50 was found to be 32.2 ± 6.4 µM on FPR1-HL60 cells; 36.2 ± 8.2 µM with human neutrophils [1]; 31.6 ± 5.3 µM against FPR2-HL60 cells; 4.9 ± 0.8 µM in the series on human neutrophils [3]; 9.8 ± 3.4 µM in [4]. Moreover, the EC50 was over 50 µM in series [2] and 39.4 ± 9.5 µM with human neutrophils [5]. In series [2], the “Ca2+ Influx C20 cells EC50” value was “inactive or had very low activity”. Besides, on PIM1, the “Binding affinity (Kd) toward PIM1” value is given as “did not observe any binding activity”. In addition, on JNK3, the “Binding affinity (Kd) toward JNK3” value is “did not observe any binding activity”. Besides, the “Cell viability (cytotoxicity), 30 min incubation” value with HL60 cells is recorded as “minimal effects on cell viability”. Besides, the “Binding affinity (Kd) toward MAPKAPK2” value on MAPKAPK2 is listed as “did not observe any binding activity”.

In the case of `C[C@@H]1CC[C@H]2[C@@H]1[C@H]1[C@@H](CC[C@]2(C)O)C1(C)C` [Viridiflorol, viridiflorol], the IC50 against FPR1-HL60 cells is 19.5 ± 4.7 µM; in the series on human neutrophils [1], 7.8 ± 2.3 µM; against FPR2-HL60 cells, 10.7 ± 3.8 µM; with human neutrophils [3], 18.3 ± 4.1 µM; in [4], 22.6 ± 3.1 µM. In addition, the EC50 in series [2] stood at 27.8 ± 4.6 µM; in the series on human neutrophils [5], 6.8 ± 2.3 µM. For the same molecule, at PIM1, the “Binding affinity (Kd) toward PIM1” value is reported as “did not observe any binding activity”. The “Binding affinity (Kd) toward JNK3” value on JNK3 was “did not observe any binding activity”. The “Cell viability (cytotoxicity), 30 min incubation” value with HL60 cells is “minimal effects on cell viability”. For the same molecule, the “Cell viability (cytotoxicity), 2 h incubation” value in the series on HL60 cells (2 h) is “a little more cytotoxicity”. For the same molecule, the “Binding affinity (Kd) toward MAPKAPK2” value on MAPKAPK2 is listed as “did not observe any binding activity”.

These data come from article PMC8232766, “Chemical Composition and Immunomodulatory Activity of Essential Oils from Rhododendron albiflorum” (Molecules, 2021).
